From publication PMC9369419 (International Journal of Molecular Sciences, 2022) come the findings set out here.

For one data set, the system named is mGluR2. The experiment in a line: mGluR2 functional assay (Ca2+/Fluo-4, mGlu2/Gqo5-HEK293 cells). Format: cell-based. Particulars: 0.1 mM compound. As to the method:
Culture media, serum, antibiotics and buffers for cell culture were obtained from Invitrogen (Paisley, UK). The Fluo-4/AM dye was obtained from Molecular Probes (Eugene, OR, USA), and Glu was purchased from Sigma-Aldrich. The construction and basic pharmacological characterization of the stable mGlu2/Gqo5-HEK293 cell line has been described previously.
Cell culture and Ca^2+/Fluo-4 Assay. The mGlu2/Gqo5-HEK293 cells were cultured in Dulbecco’s Modified Eagle Medium-Glutamax-I supplemented with 100 U/mL penicillin, 100 µg/mL streptomycin, 5% dialyzed fetal bovine serum, 100 µg/mL zeocin and 1 mg/mL G418. The cells were split into poly-D-lysine-coated black 96-well plates with clear bottoms (6 × 10^4 cells/well). The following day, the culture medium was aspirated, and the cells were incubated in 50 µL assay buffer (Hanks Buffered Salt Solution containing 20 mM HEPES, 1 mM CaCl2, 1 mM MgCl2 and 2.5 mM probenecid, pH 7.4) supplemented with […] Fluo–4/AM at 37 °C for 1 h. […] The 96-well plate was assayed in a FLEXStation (Molecular Devices, Crawley, UK) measuring emission (in fluorescence units (FU)) at 525 nm caused by excitation at 485 nm before and up to 90 s after the addition of 33.3 µL agonist-containing assay buffer. […]

The target of another data set is T1, GluK1b(Q) (Rattus norvegicus, UniProt P22756).
T1 construct: expressed in transfected cells
The experiment in a line: Intracellular Ca2+ imaging assay, HEK293 cells expressing GluK1b(Q). Format: cell-based. Particulars: 10 µM compound, Ca2+ fluorescence, read-out: inhibition of agonist-evoked responses at GluK1. The text has this:
(§1) For the determination of antagonistic activity of compounds at GluK1, GluK3 and GluA2 receptors, stable HEK293 cell lines expressing rat GluK1b(Q), GluK3a, and GluA2(Q)i were created. A polyclonal stable cell line expressing GluK3a was created as described previously. For the creation of polyclonal stable cell lines expressing GluK1and GluA2 receptors, cDNA encoding blasticidin-S deaminase (blas) enzymes were inserted into the pIRES plasmid vector (Clontech, Mountain View, CA, USA) to create the plasmid vector pRES(blas). […] For functional assays, cells were plated into clear-bottomed, black 96-well fluorescence culture plates (Corning, Vordingborg, Denmark), and when >70% confluent, the cells were loaded with 2 μM Fluo 4-AM calcium sensitive dye (Abcam, Cambridge, UK) and used for the imaging of agonist-evoked changes in intracellular Ca^2+ using a FlexStation I plate reader (Molecular Devices, San Jose, CA, USA). […] Changes in dye fluorescence in response to the addition of an agonist solution were then measured at 538 nm using excitation at 485 nm and emission cut-off at 515 nm. Baseline fluorescence was measured for 16 s before the addition of 50 µL agonist solution to each well of the assay plate, and fluorescence was measured for 120 to 160 s after addition of the agonists. […] Responses were determined in at least triplicate at each compound concentration.

The next data set deals with T2, GluK3 (Rattus norvegicus, UniProt P42264).
T2 construct: made in house; host or cells: Sf9 insect cells (membranes)
Description: Radioligand binding at recombinant homomeric GluK3 in Sf9 membranes. As to conditions: recombinant rat homomeric receptor, [3H]-kainic acid, mean ± SEM. As to the method:
Ligand binding affinities at recombinant rat homomeric GluA2, GluK1−3, and GluK5 were determined as previously detailed. […] The filters were dried at 70 °C for 1 h, and 50 μL/well Microscint 20 (PerkinElmer, Waltham, MA, USA) was added. Radioactivity was detected with a TopCounter (PerkinElmer, Waltham, MA, USA). GluA2 and GluK5 assays were filtered on GF/C type filters using Millipore 12-well filtration manifolds (Merck Life Science, Søborg, Denmark) and washed twice with ice-cold assay buffer. Filters were placed in pony vials (PerkinElmer, Waltham, MA, USA), 3 mL of Ultima Gold scintillation fluid (PerkinElmer, Waltham, MA, USA) was added, and DPM (disintegrations per minute) were determined using a TriCarb 2900 scintillation counter (PerkinElmer, Waltham, MA, USA).
All competition curves (n ≥ 3 per ligand) were determined in triplicate. Data were analyzed using GraphPad Prism 6 (GraphPad Software, San Diego, CA, USA) to determine ligand affinity (Ki) and Hill coefficient (nH) using the one-site Ki and four-parameter logistics equations, respectively.

The target of a further data set is T3, GluA2(Q)i (Rattus norvegicus, UniProt P19491).
T3 construct: expressed in transfected cells
The experiment in a line: Intracellular Ca2+ imaging assay, HEK293 cells expressing GluA2(Q)i. The format is cell-based. As to conditions: 10 µM compound, Ca2+ fluorescence, read-out: inhibition of agonist-evoked responses at GluA2.
Text: as §1

The target in a further data set is T4, GluK3a (Rattus norvegicus, UniProt P42264).
T4 construct: expressed in transfected cells
Description: Intracellular Ca2+ imaging assay, HEK293 cells expressing GluK3a. The format is cell-based. An excerpt: For the determination of antagonistic activity of compounds at GluK1, GluK3 and GluA2 receptors, stable HEK293 cell lines expressing rat GluK1b(Q), GluK3a, and GluA2(Q)i were created. A polyclonal stable cell line expressing GluK3a was created as described previously. For the creation of polyclonal stable cell lines expressing GluK1and GluA2 receptors, cDNA encoding blasticidin-S deaminase (blas) enzymes were inserted into the pIRES plasmid vector (Clontech, Mountain View, CA, USA) to create the plasmid vector pRES(blas). Subsequently, cDNA for rat GluK1(Q)1b and the flip isoform of rat GluA2(Q)i were inserted into pRES(blas) to create the expression constructs GluK1b(Q)pIRES(blas) and GluA2i(Q)pIRES(blas), respectively. These were used to transfect GripTite^TM HEK293 cells followed by selecting with 20 µg/mL blasticidin (Invivogen, Toulouse, France) and 0.50 mg/mL geneticin in the presence of 20 µM of the AMPA receptor antagonist CNQX (Tocris, Bristol, UK) until stably transfected GluK1b(Q) and GluA2(Q)i cell lines were obtained. For functional assays, cells were plated into clear-bottomed, black 96-well fluorescence culture plates (Corning, Vordingborg, Denmark), and when >70% confluent, the cells were loaded with 2 μM Fluo 4-AM calcium sensitive dye (Abcam, Cambridge, UK) and used for the imaging of agonist-evoked changes in intracellular Ca^2+ using a FlexStation I plate reader (Molecular Devices, San Jose, CA, USA). […] Changes in dye fluorescence in response to the addition of an agonist solution were then measured at 538 nm using excitation at 485 nm and emission cut-off at 515 nm. Baseline fluorescence was measured for 16 s before the addition of 50 µL agonist solution to each well of the assay plate, and fluorescence was measured for 120 to 160 s after addition of the agonists. Peak change in fluorescence was calculated as the difference between the maximal observed increase in fluorescence and pre-agonist baseline fluorescence. The agonist solutions contained 100 µM KA together with 300 µM of the KAR positive allosteric modulator BPAM344 (Sigma-Aldrich Chemical, St. Louis, MO, USA) for GluK1 and GluK3 experiments or 100 µM glutamate together with 100 µM of the AMPAR positive allosteric modulator cyclothiazide for GluA2 experiments (HelloBio, Bristol, UK). Responses were determined in at least triplicate at each compound concentration.

T4 sequence (P42264 32-919): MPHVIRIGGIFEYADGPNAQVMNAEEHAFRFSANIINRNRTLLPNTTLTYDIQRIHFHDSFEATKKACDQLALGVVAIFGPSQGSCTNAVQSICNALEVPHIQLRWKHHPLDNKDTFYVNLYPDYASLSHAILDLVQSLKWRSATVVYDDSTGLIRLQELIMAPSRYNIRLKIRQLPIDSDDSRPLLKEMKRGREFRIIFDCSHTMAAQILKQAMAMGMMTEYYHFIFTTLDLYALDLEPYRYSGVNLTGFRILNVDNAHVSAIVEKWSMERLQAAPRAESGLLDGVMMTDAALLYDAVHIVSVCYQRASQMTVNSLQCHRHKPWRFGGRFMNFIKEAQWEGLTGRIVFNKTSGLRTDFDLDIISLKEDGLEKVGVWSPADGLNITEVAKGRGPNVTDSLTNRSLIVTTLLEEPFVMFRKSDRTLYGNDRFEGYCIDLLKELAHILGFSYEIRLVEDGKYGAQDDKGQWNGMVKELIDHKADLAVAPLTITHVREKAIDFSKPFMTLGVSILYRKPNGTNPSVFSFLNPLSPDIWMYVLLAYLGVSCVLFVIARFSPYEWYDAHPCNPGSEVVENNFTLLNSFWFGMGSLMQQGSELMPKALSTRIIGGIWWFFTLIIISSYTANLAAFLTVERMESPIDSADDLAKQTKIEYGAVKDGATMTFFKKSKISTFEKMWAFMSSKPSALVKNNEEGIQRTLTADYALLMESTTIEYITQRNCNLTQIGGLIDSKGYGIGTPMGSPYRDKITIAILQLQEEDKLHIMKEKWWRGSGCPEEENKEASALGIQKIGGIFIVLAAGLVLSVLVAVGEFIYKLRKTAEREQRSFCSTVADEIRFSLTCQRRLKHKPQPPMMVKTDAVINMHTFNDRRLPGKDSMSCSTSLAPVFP
T1 sequence (P22756 31-920 isoform P22756-4 limits assumed): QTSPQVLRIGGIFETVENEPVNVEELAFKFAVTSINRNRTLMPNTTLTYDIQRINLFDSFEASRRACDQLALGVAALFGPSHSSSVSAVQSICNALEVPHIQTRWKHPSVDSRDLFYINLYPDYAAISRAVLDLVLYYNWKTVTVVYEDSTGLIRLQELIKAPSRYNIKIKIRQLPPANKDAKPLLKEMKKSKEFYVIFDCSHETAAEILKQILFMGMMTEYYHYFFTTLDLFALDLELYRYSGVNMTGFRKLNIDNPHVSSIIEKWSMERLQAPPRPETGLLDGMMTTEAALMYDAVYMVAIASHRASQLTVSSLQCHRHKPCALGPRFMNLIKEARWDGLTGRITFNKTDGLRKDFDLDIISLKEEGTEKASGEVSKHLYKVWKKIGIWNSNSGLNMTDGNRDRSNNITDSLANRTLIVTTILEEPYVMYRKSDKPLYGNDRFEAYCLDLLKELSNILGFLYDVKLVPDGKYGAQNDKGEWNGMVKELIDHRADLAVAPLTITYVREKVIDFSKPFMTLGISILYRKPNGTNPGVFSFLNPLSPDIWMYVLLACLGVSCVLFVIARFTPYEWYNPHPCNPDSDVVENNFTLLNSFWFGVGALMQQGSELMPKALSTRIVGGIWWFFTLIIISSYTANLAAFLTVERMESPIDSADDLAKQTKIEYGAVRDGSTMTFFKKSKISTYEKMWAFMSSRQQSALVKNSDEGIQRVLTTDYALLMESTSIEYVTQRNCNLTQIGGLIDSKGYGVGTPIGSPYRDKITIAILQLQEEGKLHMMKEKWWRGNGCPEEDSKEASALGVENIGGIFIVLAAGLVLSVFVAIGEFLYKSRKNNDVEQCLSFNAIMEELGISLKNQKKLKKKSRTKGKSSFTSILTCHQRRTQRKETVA
T2 sequence (P42264 32-919): as the sequence (P42264 32-919) above
T3 sequence (P19491 22-883 isoform P19491-2 limits assumed): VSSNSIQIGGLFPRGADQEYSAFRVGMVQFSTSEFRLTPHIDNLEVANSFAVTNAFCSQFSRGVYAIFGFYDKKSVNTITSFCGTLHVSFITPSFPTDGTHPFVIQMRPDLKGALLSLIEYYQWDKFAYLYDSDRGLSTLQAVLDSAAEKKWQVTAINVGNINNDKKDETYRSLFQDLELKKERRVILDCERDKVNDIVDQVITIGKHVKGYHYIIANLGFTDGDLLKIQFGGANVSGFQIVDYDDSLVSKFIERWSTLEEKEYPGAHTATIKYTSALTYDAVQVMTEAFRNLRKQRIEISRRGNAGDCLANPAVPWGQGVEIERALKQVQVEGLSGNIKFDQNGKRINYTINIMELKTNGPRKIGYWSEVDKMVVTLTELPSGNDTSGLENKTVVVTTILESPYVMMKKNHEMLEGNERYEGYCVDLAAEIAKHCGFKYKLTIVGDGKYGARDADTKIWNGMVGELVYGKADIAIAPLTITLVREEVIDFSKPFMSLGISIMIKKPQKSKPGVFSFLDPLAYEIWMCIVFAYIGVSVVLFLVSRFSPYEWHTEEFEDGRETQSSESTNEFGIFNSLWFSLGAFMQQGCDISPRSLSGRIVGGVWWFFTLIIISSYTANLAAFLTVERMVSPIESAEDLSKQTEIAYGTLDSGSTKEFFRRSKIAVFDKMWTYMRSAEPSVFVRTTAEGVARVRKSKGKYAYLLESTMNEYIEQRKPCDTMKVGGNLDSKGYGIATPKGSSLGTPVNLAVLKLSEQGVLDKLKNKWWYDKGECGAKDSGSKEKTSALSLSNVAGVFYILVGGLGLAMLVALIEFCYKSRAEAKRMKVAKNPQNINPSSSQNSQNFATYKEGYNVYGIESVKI

Molecule `O=C(Nn1c(=O)c(=O)[nH]c2cc(C#Cc3cnc4cccnn34)ccc21)c1ccccc1` [Compound 28] displayed a melting point of 314 to 315 °C. In the data set with mGluR2, the “agonist or antagonist activity at mGluR2” value was “neither agonistic nor antagonistic”. Also, the inhibition at 10 µM at GluK1b(Q) was less than 5%. Moreover, the inhibition constant (Ki) at GluK3 is 0.25 ± 0.01 µM. For the same molecule, at GluA2(Q)i, the inhibition at 10 µM is less than 5%. The “inhibition of agonist-evoked responses at GluK3” value at GluK3a (10 µM compound, Ca2+ fluorescence) was “full inhibition”. Further, at GluK3a (100 µM KA + 300 µM BPAM344, Ca2+ fluorescence, read-out: IC50, antagonism of agonist-evoked responses at GluK3), the IC50 stood at 3.6 µM.
